“Also recorded” adds a separate entry of the source.
Legend:
[1] = test system: human HIP iPSCs (CyD clone 2G11); assay: Cytosine deaminase kill switch: s.c. HIP-CyD iPSCs in NSG mice; assay type: in vivo
Experimental: (§1) Subcutaneous. Healthy male NSG mice were anesthetized via isoflurane inhalation anesthesia in a knockdown chamber. The anesthetized mice were removed from the chamber and placed in a supine position. The injection site (right inguinal area) was sprayed with 70% EtOH. Cells were injected subcutaneously proximal to the inguinal region.
(§2) Mice were anesthetized via isoflurane inhalation anesthesia and injected intraperitoneally (IP) with 250 μl luciferin (45.45 mg/ml). The mice were then positioned in a nose cone in the bioluminescence chamber (anesthesia was maintained at 1.5% with 500 ml oxygen/min). The mice were imaged for 180 seconds. A circle was drawn around the region of interest (ROI) giving a reading of photons/sec of emitted light.
Human HIP iPSCs (CyD clone 2G11) were injected subcutaneously into Group 1 NSG mice. Flucytosine LD (200 mg/kg) treatment was administered daily intraperitoneally. […] Group 1 mice treatment was as follows: 1×10^6 hiPSC HIP CyD clone 2G11 in diluted MG, S.C.; treatment=200 mg/kg/day Flucytosine, IP (DO).

[2] = test system: human HIP iPSCs (clone 15; no kill switch); assay: s.c. HIP iPSCs without kill switch in NSG mice treated with pro-drug; assay type: in vivo
Experimental: as §1, §2
Human HIP iPSCs (clone 15; no kill switch) were injected subcutaneously into Group 6 NSG mice. Flucytosine HD (500 mg/kg) treatment was administered daily intraperitoneally. As shown in FIG. 81A-B, human HIP iPSC survival appeared to be impaired by flucytosine HD although cells had no kill switch. The group was expanded for data validation (FIG. 81C-D and FIG. 81E-F). […]
Human HIP iPSCs (clone 15; no kill switch) were injected subcutaneously into Group 6 NSG mice. Ganciclovir HD (75 mg/kg) treatment was administered daily intraperitoneally starting Day 0. […]

[3] = test system: human HIP iPSCs (HSVTk clone 1-B10); assay: HsVtk kill switch: s.c. HIP-HsVtk iPSCs in NSG mice; assay type: in vivo
Experimental: as §1, §2
Human HIP iPSCs (HSVTk clone 1-B10) were injected subcutaneously into Group 1 NSG mice. Ganciclovir LD (50 mg/kg) treatment was performed daily intraperitoneally. […] Mice were checked during a 44D follow up. Group 1 mice treatment was as follows: 1×10^6 hiPSCs HIP HSVtk clone 1-B10 luc+ in diluted MG, S.C.; treatment was 50 mg/kg/day Ganciclovir, IP (DO).

[4] = intravenous, cited from earlier work
[5] = test system: HIP CD19CAR-T cells (B2M−/−, CIITA−/−, TRAC−/−, CD19-specific CAR-CD47 T cells); assay: Innate killing (NK cells, macrophages) by real-time cell analysis, HIP CAR-T cells; assay type: cell-based, human; settings: pretreated with CD47 blocking antibody, E:T 1:1
Experimental: Briefly, T-cells were plated in CD19^+ tumor cell specific media. After cell index value reached 0.7, human NK cells or human macrophages were added with an E:T ratio of 1:1 with human IL-2 for NK cells and without IL-2 for macrophages. […] Data were standardized and analyzed with the real-time cell analysis instrument software.
After about 48 hours, T-cells were collected and stained with components of a live/dead cell viability staining assay. Briefly, cells were stained with calcein AM and ethidium homodimer-1 according to the manufacturer's protocol. The analysis was performed by flow cytometry and the results were expressed as percentage of dead cells.

[6] = test system: human HIP iPSCs; assay: In vitro killing of human HIP iPSCs by human NK cells and macrophages with anti-CD47 antibody; assay type: cell-based; settings: 100 μg/ml antibody
[7] = test system: human HIP iPSCs; assay: Subcutaneous human HIP iPSCs in NSG mice with adoptive transfer of human NK cells, BLI; assay type: in vivo
Experimental: as §1
The mice were then positioned in a nose cone in the bioluminescence chamber (anesthesia was maintained at 1.5% with 500 ml oxygen/min). The mice were imaged for 180 seconds. A circle was drawn around the region of interest (ROI) giving a reading of photons/sec of emitted light.
IP dosing. The antibody (100 μl) was injected into the peritoneal cavity from the ventral surface by piercing the skin and muscle layers.
SC dosing. Mice were anesthetized via isoflurane inhalation anesthesia and placed in a supine position. The injection site (right inguinal area) was sprayed with 70% EtOH and the antibody (100 μl) was injected into the area of the implanted cells.

[8] = test system: mock transfected T cells; assay: Innate killing by real-time cell analysis, mock transfected T cells; assay type: cell-based, human; settings: in the presence of the antibody

Nc1[nH]c(=O)ncc1F [Flucytosine]
time to killing of HIP-CyD iPSCs ([1]; HD 500 mg/kg daily intraperitoneally from D0): 16 to 32 days
time to killing of HIP-CyD iPSCs after starting treatment ([1]; HD 500 mg/kg daily intraperitoneally from Day 13): 3 to 11 days
time to killing of HIP-CyD iPSCs ([1]; LD 200 mg/kg daily intraperitoneally from D0): 16 to 44 days
time to killing of HIP-CyD iPSCs after starting treatment ([1]; LD 200 mg/kg daily intraperitoneally from Day 13): 3 to 11 days
benefit of HD as compared to LD ([1]; treatment from D0): No major benefit
benefit of HD compared to LD ([1]; treatment from Day 13): No benefit
survival of HIP iPSCs without kill switch ([2]; Flucytosine HD 500 mg/kg daily intraperitoneally): impaired

Nc1nc(O)c2ncn(COC(CO)CO)c2n1 [Ganciclovir]
time to killing of HIP-HsVtk iPSCs ([3]; HD 75 mg/kg daily intraperitoneally from D0): 12 to 16 days
time to killing of HIP-HsVtk iPSCs after start of treatment ([3]; HD 75 mg/kg daily intraperitoneally from Day 13): ≤ 7 days
time to killing of HIP-HsVtk iPSCs ([3]; LD 50 mg/kg daily intraperitoneally from D0): 12 to 24 days
time to killing of HIP-HsVtk iPSCs after start of treatment ([3]; LD 50 mg/kg daily intraperitoneally from Day 13): ≤ 7 days
benefit of HD ([3]; treatment from D0): slightly beneficial
benefit of HD compared to LD ([3]; treatment from Day 13): No obvious benefit
impact on HIP iPSCs without kill switch ([2]; Ganciclovir HD 75 mg/kg daily intraperitoneally from Day 0): no killing; also recorded: no impact

TTI-621: fusion protein of N-terminal V domain of human SIRPα fused to human IgG1 Fc region (SEQ ID NO:133)
maximum tolerated dose (MTD) ([4]; monotherapy, relapsed/refractory hematologic malignancies and selected solid tumors): 0.2 mg/kg
tolerability ([4]; phase 1): well tolerated

B1: magrolimab: anti-CD47 antibody magrolimab (Hu5F9-G4) (Forty Seven, Inc.; Gilead Sciences, Inc.) (antibody, chains of the INN, looked up, V domains shown)
VH: QVQLVQSGAEVKKPGASVKVSCKASGYTFTNYNMHWVRQAPGQRLEWMGTIYPGNDDTSYNQKFKDRVTITADTSASTAYMELSSLRSEDTAVYYCARGGYRAMDYWGQGTLVTVSS
VL: DIVMTQSPLSLPVTPGEPASISCRSSQSIVYSNGNTYLGWYLQKPGQSPQLLIYKVSNRFSGVPDRFSGSGSGTDFTLKISRVEAEDVGVYYCFQGSHVPYTFGQGTKLEIK
killing of HIP CAR-T cells by macrophages and NK cells on CD47 blocking [5]: susceptible to macrophage and NK cell killing
killing of HIP CAR-T cells by macrophages and NK cells on CD47 blocking ([5]; listed as macrolimab): induced killing
killing of human HIP iPSCs by human NK cells [6]: killing
killing of human HIP iPSCs by human macrophages [6]: killing
killing of HIP iPSCs ([7]; magrolimab D0-D10, 5×10^4 iPSCs, 1×10^6 NK cells): killing of HIP iPSCs
re-appearance of iPSCs ([7]; magrolimab stopped after D10, 6-month follow up): didn't re-appear
killing of mock transfected T cells by NK cell and macrophages [8]: not killed
